# Assay results from ChEMBL document CHEMBL4706671, “A High-Affinity Peptide Ligand Targeting Syntenin Inhibits Glioblastoma” (J Med Chem, 2021).
# The source made the active and inactive calls. The rule behind the calls is not given here. Non-standard residues stand in square brackets, D forms with d. Residues, ends and D or L forms follow the SMILES beside them. *: point of attachment. X1 = CN(C)c1ccc2c(-c3cc(C(=O)*)ccc3C(=O)[O-])c3ccc(=[N+](C)C)cc-3oc2c1; Biotin = O=C1N[C@H]2[C@H](CS[C@H]2CCCCC(=O)*)N1; Chg = N[C@H](C(=O)O)C1CCCCC1; Tle = CC(C)(C)[C@H](N)C(=O)O; AEEA = NCCOCCOCC(=O)O
# Assays:
# Syntenin-1 [1] = biological target: T1, Syntenin-1 (Homo sapiens, UniProt O00560); assay: (§1) Inhibition of syntenin-PDZ1-2 domain (unknown origin) expressed in Escherichia coli BL21 (DE3) incubated for 5 mins by fluorescence polarization assay
# T1 sequence (O00560 whole entry): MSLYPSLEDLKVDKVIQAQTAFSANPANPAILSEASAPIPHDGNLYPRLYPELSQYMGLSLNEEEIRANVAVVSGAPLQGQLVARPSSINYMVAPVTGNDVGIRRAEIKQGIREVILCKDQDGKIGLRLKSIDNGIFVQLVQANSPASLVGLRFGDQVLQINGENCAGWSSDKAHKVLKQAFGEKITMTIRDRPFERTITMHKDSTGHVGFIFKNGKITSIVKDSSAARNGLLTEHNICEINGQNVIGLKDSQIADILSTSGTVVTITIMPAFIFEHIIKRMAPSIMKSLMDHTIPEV
# [2] = biological target: T2, Syntenin-1 (Homo sapiens) (UniProt O00560); assay: Inhibition of mCherry-labeled-syntenin expressed in human MCF7 cells co-expressing […] Q79L mutant assessed as reduction in syntenin-dependent intracellular endosomal budding at 0.1 to 10 uM incubated for 24 hrs; assay type: cell-based; settings: dose 0.1-10 µM
# T2 sequence (whole entry): T1 sequence (O00560 whole entry)
# MCF7 = assay: Antineoplastic activity against human MCF7 cells assessed as reduction in cell viability at 10 to 30 uM incubated for 72 hrs by Cell-titer-Glo luminescent cell viability assay; assay type: functional, cell-based; settings: dose 10-30 µM
# HT-29 = assay: Antineoplastic activity against human HT-29 cells assessed as reduction in cell viability at 10 to 30 uM incubated for 72 hrs by Cell-titer-Glo luminescent cell viability assay; assay type: functional, cell-based; settings: dose 10-30 µM
# A2058 = assay: Antineoplastic activity against human A2058 cells assessed as reduction in cell viability incubated for 72 hrs by Cell-titer-Glo luminescent cell viability assay; assay type: functional, cell-based
# [3] = Stability in human plasma assessed as half life for compound degradation at 0.2 mM by UPLC analysis; assay type: ADME, cell-free
# [4] = Stability in mouse hepatic microsomes assessed as half life for compound degradation at […] in presence of NADPH by UPLC analysis; assay type: ADME, Microsome; settings: liver microsomes
# GBM [5] = assay: Antineoplastic activity against human patient-derived GBM001 cells assessed as reduction in cell viability incubated for 72 hrs by Cell-titer-Glo luminescent cell viability assay; assay type: functional, cell-based
# [6] = biological target: T2, Syntenin-1 (Homo sapiens); assay: as §1
# GBM [7] = assay: Antineoplastic activity against human patient-derived GBM002 cells assessed as reduction in cell viability incubated for 72 hrs by Cell-titer-Glo luminescent cell viability assay; assay type: functional, cell-based
# Astrocyte = assay: Cytotoxic activity against normal human astrocytes assessed as reduction in cell viability at 20 to 30 uM incubated for 24 hrs by Cell-titer-Glo luminescent cell viability assay; assay type: cell-based; settings: dose 20-30 µM
# HEK293 = assay: Cytotoxic activity against HEK293 cells assessed as reduction in cell viability at 12.5 to 50 uM incubated for 24 hrs by Cell-titer-Glo luminescent cell viability assay; assay type: cell-based; settings: human, hek293, 24 h, dose 12.5-50 µM
# [8] = Drug distribution in cytoplasm of human patient-derived GBM002 cells at 10 to 30 uM incubated for 2 to 24 hrs hrs by confocal microscopy; assay type: ADME, subcellular; settings: gbm, dose lower 10 µM, time lower 2 hrs, dose upper 30 µM, time upper 24 hrs
# GBM [9] = assay: Antineoplastic activity against human patient-derived GBM cells xenografted in NMRInu-F receiving GBM cells pre-treated with 50 uM compound for 24 hrs assessed as median survival time (reference value: 25 days); assay type: functional
# Syntenin-1 [10] = biological target: T1, Syntenin-1; assay: Binding affinity to syntenin-PDZ1-2 domain (unknown origin) expressed in Escherichia coli BL21 (DE3) by SPR analysis
# [11] = biological target: T2, Syntenin-1 (Homo sapiens); assay: Binding affinity to syntenin-PDZ1-2 domain (unknown origin) expressed in Escherichia coli BL21 (DE3) assessed as apparent association rate constant by SPR analysis
# [12] = biological target: T2, Syntenin-1 (Homo sapiens); assay: Binding affinity to syntenin-PDZ1-2 domain (unknown origin) expressed in Escherichia coli BL21 (DE3) assessed as apparent dissociation rate constant by SPR analysis
# [13] = biological target: T2, Syntenin-1 (Homo sapiens); assay: Binding affinity to human syntenin-PDZ1 domain assessed as binding intensity by HTS holdup assay
# [14] = biological target: T2, Syntenin-1 (Homo sapiens); assay: Binding affinity to human syntenin-PDZ2 domain assessed as binding intensity by HTS holdup assay
# Homo sapiens = species on record: Homo sapiens; assay: Selectivity index, ratio of Kd for binding affinity to syntenin2-PDZ1-2 domain (unknown origin) expressed in Escherichia coli BL21 (DE3) by SPR analysis to Kd for binding affinity to syntenin-PDZ1-2 domain (unknown origin) expressed in Escherichia coli BL21 (DE3) by SPR analysis
molecule,measurement,setting,value
CC[C@H](C)[C@@H](NC(=O)[C@H](CC(=O)O)NC(=O)[C@@H](NC(=O)[C@@H](NC(=O)[C@H](Cc1c[nH]c2ccccc12)NC(=O)[C@H](Cc1cnc[nH]1)NC(=O)[C@H](CO)NC(=O)[C@H](CCCNC(=N)N)NC(=O)[C@H](CCCNC(=N)N)NC(=O)[C@H](CCCNC(=N)N)NC(=O)[C@H](CCCNC(=N)N)NC(=O)[C@H](CCCNC(=N)N)NC(=O)[C@H](CCCNC(=N)N)NC(=O)[C@H](CCCNC(=N)N)NC(=O)[C@H](CCCNC(=N)N)NC(=O)[C@H](CCCNC(=N)N)NC(C)=O)C(C)(C)C)C1CCCCC1)C(=O)O,Ki,Syntenin-1 [1],250 nM
same,inhibition,[2],Dose-dependent effect
CC[C@H](C)[C@@H](NC(=O)[C@H](CC(=O)O)NC(=O)[C@@H](NC(=O)[C@@H](NC(=O)[C@H](Cc1c[nH]c2ccccc12)NC(=O)[C@H](Cc1cnc[nH]1)NC(=O)[C@H](CO)NC(=O)[C@@H]1CCC(=O)NCCCC[C@H](NC(C)=O)C(=O)N[C@H](CCCNC(=N)N)C(=O)N[C@@H](CCCNC(=N)N)C(=O)N[C@H](CCCNC(=N)N)C(=O)NCC(=O)N[C@H](CCCNC(=N)N)C(=O)N[C@@H](CCCCN)C(=O)N[C@H](CCCCN)C(=O)N[C@@H](CCCNC(=N)N)C(=O)N[C@H](CCCNC(=N)N)C(=O)N1)C(C)(C)C)C1CCCCC1)C(=O)O,Activity,MCF7,inactive
same,Activity,HT-29,inactive
same,Activity,A2058,Dose-dependent effect
same,Ki,Syntenin-1 [1],250 nM
same,half-life at 200 µM,[3],> 24 h
same,half-life,[4],> 1 h
same,inhibition,[2],Dose-dependent effect
CC[C@H](C)[C@H](NC(=O)[C@H](CC(=O)O)NC(=O)[C@@H](NC(=O)[C@@H](NC(=O)[C@H](Cc1c[nH]c2ccccc12)NC(=O)[C@H](Cc1c[nH]cn1)NC(=O)[C@H](CO)NC(=O)[C@H](CCCNC(=N)N)NC(=O)[C@H](CCCNC(=N)N)NC(=O)[C@H](CCCNC(=N)N)NC(=O)[C@H](CCC(N)=O)NC(=O)[C@H](CCCNC(=N)N)NC(=O)[C@H](CCCNC(=N)N)NC(=O)[C@H](CCCCN)NC(=O)[C@H](CCCCN)NC(=O)[C@H](CCCNC(=N)N)NC(=O)CNC(=O)[C@H](Cc1ccc(O)cc1)NC(C)=O)C(C)(C)C)C1CCCCC1)C(=O)O,half-life,[4],> 1 h
CC[C@H](C)[C@@H](NC(=O)[C@H](CC(=O)O)NC(=O)[C@@H](NC(=O)[C@@H](NC(=O)[C@H](Cc1c[nH]c2ccccc12)NC(=O)[C@H](Cc1cnc[nH]1)NC(=O)[C@H](CO)NC(=O)[C@H](CCCNC(=N)N)NC(=O)[C@H](CCCNC(=N)N)NC(=O)[C@H](CCCNC(=N)N)NC(=O)[C@H](CCC(N)=O)NC(=O)[C@H](CCCNC(=N)N)NC(=O)[C@H](CCCNC(=N)N)NC(=O)[C@H](CCCCN)NC(=O)[C@H](CCCCN)NC(=O)[C@H](CCCNC(=N)N)NC(=O)CNC(=O)[C@H](Cc1ccc(O)cc1)NC(C)=O)C(C)(C)C)C1CCCCC1)C(=O)O,Ki,Syntenin-1 [1],250 nM
same,inhibition,[2],Dose-dependent effect
CC[C@H](C)[C@H](NC(=O)[C@H](CC(=O)O)NC(=O)CNC(=O)[C@H](Cc1cnc[nH]1)NC(=O)[C@H](CS)NC(=O)[C@H](CCC(=O)O)NC(=O)[C@H](CC(C)C)NC(=O)[C@@H](NC(=O)[C@H](Cc1c[nH]c2ccccc12)NC(=O)[C@H](Cc1cnc[nH]1)NC(=O)[C@H](CO)NC(=O)[C@H](CCCNC(=N)N)NC(=O)[C@H](CCCNC(=N)N)NC(=O)[C@H](CCCCN)NC(=O)[C@H](CCCCN)NC(=O)[C@H](CCCNC(=N)N)NC(=O)CNC(=O)[C@H](CCCNC(=N)N)NC(=O)[C@H](CCCNC(=N)N)NC(=O)[C@H](CCCNC(=N)N)NC(=O)[C@H](CS)NC(=O)[C@H](C)N)[C@@H](C)O)C(=O)O (H-ACRRRGRKKRRSHWTLECHGDI-OH),Activity,GBM [5],Dose-dependent effect
same,Activity,MCF7,inactive
same,Activity,HT-29,inactive
same,Activity,A2058,Dose-dependent effect
same,inhibition,[6],Active
same,half-life,[4],> 1 h
same,inhibition,[2],Dose-dependent effect
same,Activity,GBM [7],Dose-dependent effect
same,Activity,Astrocyte,Toxic
same,Activity,HEK293,Toxic
same,Drug uptake,[8],Dose-dependent effect and Tde
same,MST,GBM [9],45.5 days
CC[C@H](C)[C@H](NC(=O)[C@H](Cc1cnc[nH]1)NC(=O)[C@@H](NC(=O)[C@@H](NC(=O)[C@@H](N)CC(=O)O)C1CCCCC1)C(C)(C)C)C(=O)N[C@@H](Cc1c[nH]c2ccccc12)C(=O)N[C@@H](CO)C(=O)O (H-D[Chg][Tle]HIWS-OH),Ki,Syntenin-1 [1],> 500000 nM
CC[C@H](C)[C@H](NC(=O)[C@H](CC(=O)O)NC(=O)[C@@H](NC(=O)[C@@H](NC(=O)[C@H](Cc1c[nH]c2ccccc12)NC(=O)[C@H](Cc1cnc[nH]1)NC(=O)[C@H](CO)NC(=O)CNC(=O)[C@H](CC(N)=O)NC(=O)[C@H](CC(N)=O)NC(=O)c1ccc(C(=O)[O-])c(-c2c3ccc(=[N+](C)C)cc-3oc3cc(N(C)C)ccc23)c1)C(C)(C)C)C1CCCCC1)C(=O)O (X1-NNGSHW[Tle][Chg]DI-OH),Ki,Syntenin-1 [1],30 nM
CC[C@H](C)[C@H](NC(=O)[C@H](CC(=O)O)NC(=O)[C@@H](NC(=O)[C@@H](NC(=O)[C@H](Cc1c[nH]c2ccccc12)NC(=O)[C@H](Cc1cnc[nH]1)NC(=O)[C@H](CO)NC(=O)COCCOCCNC(=O)CCCC[C@@H]1SC[C@@H]2NC(=O)N[C@@H]21)C(C)(C)C)C1CCCCC1)C(=O)O ({Biotin-AEEA}-SHW[Tle][Chg]DI-OH),Ki,Syntenin-1 [1],190 nM
same,Ki,Syntenin-1 [10],170 nM
same,K,[11],3.1 10^5/M/s
same,K,[12],0.05 s⁻¹
same,Flu intensity,[13],0.96
same,Activity,[14],inactive
same,Ratio,Homo sapiens,440
CC(C)NCC(O)COc1cccc2ccccc12 (stereo not drawn) [PROPRANOLOL],half-life,[4],0.583 h
H-KDKEYYV-OH,Ki,Syntenin-1 [1],110000 nM
H-NAIYSLA-OH,Ki,Syntenin-1 [1],100000 nM
H-RSGYEVM-OH,Ki,Syntenin-1 [1],24000 nM
H-SHWTIDI-OH,Ki,Syntenin-1 [1],2000 nM
same,half-life at 200 µM,[3],0.142 h
same,half-life,[4],> 1 h
H-SKGETAV-OH,Ki,Syntenin-1 [1],10000 nM
H-TLEDSVF-OH,Ki,Syntenin-1 [1],44000 nM
H-TTNEFYA-OH,Ki,Syntenin-1 [1],2000 nM
